Experiments:
[1] = Aqueous solubility of Compound A; assay type: physicochemical; conditions: all pHs, including physiologically relevant pHs
[2] = In vitro release assay: release of Compound A from SUV to acceptor multilamellar vesicles (MLVs); assay type: physicochemical
Source text: The aim of this experiment was to investigate the release rate of Compound A from small unilamellar vesicles (SUV; used here as a drug carrier system, see Example 3A) to large multilamellar vesicles (MLVs) consisting of egg phospholipids, and used as a lipophilic acceptor for drug released (see Shabbits J. A., Chiu G. N. and Mayer L. D. “Development of an in vitro drug release assay that accurately predicts in vivo drug retention for liposome-based delivery systems” Journal of Controlled Release 2002, 84(3), 161-170).
Multilamellar vesicles were prepared by using the Film-Hydration method. In short, egg phospholipids (Lipoid E 80 S) were weighed out and completely dissolved in organic solvent (EtOH/DCM at 4:1 v/v) to assure a homogenous mixture of all components.
Next, the organic solvent was removed using rotary evaporation (first step: 200 mbar, 50° C., 2 hours; second step: 30 mbar, 50° C., 45 minutes) to yield a homogenous lipid film. To assure complete removal of the organic solvent, the flask was flushed with nitrogen. Next, the film was rehydrated using phosphate buffered saline (PBS, pH 7.4) yielding MLVs and upon complete rehydration the MLVs were exposed to sonication for 15 minutes.
To have the MLVs resuspended in the same buffer system as the SUVs, the suspension was centrifuged for 10 minutes at 14,000 g, the supernatant (PBS) was removed, and replaced by sucrose histidine buffer. Lastly, the mixture was vortexed thoroughly to assure complete redispersion of the MLVs in the new medium before starting the release experiment.
SUVs (donor) were mixed with MLVs (acceptor) in a 25 ml Erlenmeyer flask with a stopper under stirring (500 rpm) at various ratios (1:40, 1:100, 1:200, 1:500; SUV:MLV v/v). 1 ml samples were taken at different time points and immediately centrifuged (14′000 rpm, 10 minutes) to separate the MLVs from SUVs for further processing. FIG. 3 herein is a schematic depicting the principle of the MLV-based release assay.
Next, the MLV portion was removed via suction and 50 μl of the SUV portion were mixed with 450 μl of ACN:H2O for HPLC sample preparation. The sample was then centrifuged (14′000 rpm, 10 minutes), the supernatant was filtered using a 0.22 μm filter and injected into the HPLC for analysis.
A high performance liquid chromatography (HPLC) system with UV detection including the following equipment settings and solvent systems were employed:
Compound A release was measured using MLVs as the acceptor compartment. Here, Compound A-loaded SUVs (7.5 mg/ml) were added to these MLVs at different ratios (v/v).
Note: For all MLV release experiments, the maximum concentration (maxC=100%) was obtained by diluting the 7.5 mg/ml loaded SUVs 1 to 40, 1 to 100, 1 to 200, or 1 to 500 (v/v) in Sucrose Histidine buffer instead of MLVs.

Initial amount of Compound A still detectable in the SUV portion ([2]; SUV:MLV 1 to 40 (v/v), after 2 minutes, 7.5 mg/ml loaded SUVs): about 44%
Compound A released or transferred to the acceptor MLV ([2]; SUV:MLV 1 to 40 (v/v), t=2 minutes): ~60%
Compound A released to the acceptor MLV ([2]; SUV:MLV 1 to 100 (v/v), t=2 minutes): ~70%
Compound A released to the acceptor MLV ([2]; SUV:MLV 1 to 200 (v/v), t=2 minutes): ~80%
Compound A released to the acceptor MLV ([2]; SUV:MLV 1 to 500 (v/v), t=2 minutes): ~90%
Drug substance released (maximum over the ratios tested) ([2]; after only 2 minutes): up to 90%
Structure (SMILES): COc1ccccc1-c1nccc(COc2ccccc2CC(Oc2ncnc3sc(-c4ccc(F)cc4)c(-c4ccc(OCCN5CCN(C)CC5)c(Cl)c4C)c23)C(=O)O)n1 [Compound A, (2R)-2-{[(5Sa)-5-{3-chloro-2-methyl-4-[2-(4-methylpiperazin-1-yl)ethoxy]phenyl}-6-(4-fluorophenyl)thieno[2,3-d]pyrimidin-4-yl]oxy}-3-(2-{[2-(2-methoxyphenyl)pyrimidin-4-yl]methoxy}phenyl)propanoic acid]
Aqueous solubility [1]: limited aqueous solubility across all pHs
